Source: paper PMC9115112, “A2B adenosine receptor antagonists rescue lymphocyte activity in adenosine-producing patient-derived cancer models” (Journal for Immunotherapy of Cancer, 2022)

Legend:
human A1AR = molecular target: T1, human A1AR (Homo sapiens, UniProt P30542); assay: Radioligand binding, human A1AR ([3H]DPCPX, transfected CHO cells); settings: displacement of [3H]DPCPX, transfected CHO cells, n=3, racemic mixtures; read-out: Ki hA1
T1 construct: expressed in transfected cells; host or cells: CHO
T1 sequence (P30542 1-326): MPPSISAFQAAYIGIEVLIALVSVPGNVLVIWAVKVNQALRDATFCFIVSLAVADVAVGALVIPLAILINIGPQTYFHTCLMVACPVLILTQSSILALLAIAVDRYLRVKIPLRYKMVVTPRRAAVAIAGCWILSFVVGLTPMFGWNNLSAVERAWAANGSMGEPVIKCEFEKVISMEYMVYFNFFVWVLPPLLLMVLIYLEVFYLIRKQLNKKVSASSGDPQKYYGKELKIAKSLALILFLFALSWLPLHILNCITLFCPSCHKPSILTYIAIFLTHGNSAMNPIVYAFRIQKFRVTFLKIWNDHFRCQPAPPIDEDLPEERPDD
Protocol: (§1) The affinity and selectivity profiles of the ligands obtained was studied in vitro, radioligand binding assays, at the four human specific ARs subtypes, using experimental protocols previously described.[28–30] All ligands were prepared and tested as racemic mixtures. […] Non-specific binding was determined in the presence of R-PIA 10 µM for A1AR, NECA 50 µM for A2AAR, NECA 400 μΜ for A2BAR and R-PIA 100 μΜ for A3AR.

human A2AAR = molecular target: T2, human A2AAR (Homo sapiens, UniProt P29274); assay: Radioligand binding, human A2AAR ([3H]ZM241385, transfected HeLa cells); settings: displacement of [3H]ZM241385, human HeLa cells, n=3, racemic mixtures; read-out: Ki hA2A
T2 construct: expressed in transfected cells; host or cells: HeLa
T2 sequence (P29274 whole entry): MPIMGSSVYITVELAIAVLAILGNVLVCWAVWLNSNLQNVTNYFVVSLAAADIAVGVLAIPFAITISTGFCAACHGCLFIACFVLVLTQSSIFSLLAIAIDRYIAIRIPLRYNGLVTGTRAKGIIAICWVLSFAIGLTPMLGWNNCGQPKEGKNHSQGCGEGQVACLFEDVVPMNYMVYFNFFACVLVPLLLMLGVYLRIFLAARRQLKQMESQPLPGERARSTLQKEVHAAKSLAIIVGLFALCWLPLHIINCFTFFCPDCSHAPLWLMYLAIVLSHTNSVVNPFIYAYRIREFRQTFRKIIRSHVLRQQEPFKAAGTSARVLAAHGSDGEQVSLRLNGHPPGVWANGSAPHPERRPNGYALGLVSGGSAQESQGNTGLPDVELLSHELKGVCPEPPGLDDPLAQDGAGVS
Protocol: as §1

human A2BAR = molecular target: T3, human A2BAR (Homo sapiens, UniProt P29275); assay: Radioligand binding, human A2BAR ([3H]DPCPX, transfected HEK-293 cells); settings: displacement of [3H]DPCPX, human HEK-293 cells, n=3, racemic mixtures; read-out: Ki hA2B
T3 construct: expressed in transfected cells; host or cells: HEK-293
T3 sequence (P29275 1-332): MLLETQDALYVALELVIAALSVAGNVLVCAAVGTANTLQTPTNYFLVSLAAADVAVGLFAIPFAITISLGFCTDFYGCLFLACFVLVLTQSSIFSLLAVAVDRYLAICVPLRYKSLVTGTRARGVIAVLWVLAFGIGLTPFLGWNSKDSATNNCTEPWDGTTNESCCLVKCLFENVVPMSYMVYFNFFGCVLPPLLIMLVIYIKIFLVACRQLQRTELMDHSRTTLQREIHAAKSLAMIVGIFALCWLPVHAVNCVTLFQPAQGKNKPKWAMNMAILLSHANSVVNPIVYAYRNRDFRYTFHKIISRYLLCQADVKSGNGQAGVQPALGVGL
Protocol: as §1

human A3AR = molecular target: T4, human A3AR (Homo sapiens, UniProt P0DMS8); assay: Radioligand binding, human A3AR ([3H]NECA, transfected HeLa cells); settings: displacement of [3H]NECA, n=3, racemic mixtures, read-out: Ki hA3
T4 construct: expressed in transfected cells; host or cells: HeLa
T4 sequence (P0DMS8 1-318): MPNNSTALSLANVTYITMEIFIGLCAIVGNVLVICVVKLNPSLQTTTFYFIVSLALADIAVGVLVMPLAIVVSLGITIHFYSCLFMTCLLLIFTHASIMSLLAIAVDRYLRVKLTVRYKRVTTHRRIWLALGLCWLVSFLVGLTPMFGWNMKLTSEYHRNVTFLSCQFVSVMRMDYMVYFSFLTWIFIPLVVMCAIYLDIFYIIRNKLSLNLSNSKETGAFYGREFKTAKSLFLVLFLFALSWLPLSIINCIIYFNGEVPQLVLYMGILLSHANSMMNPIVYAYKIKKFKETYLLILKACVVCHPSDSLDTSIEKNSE
Protocol: as §1

Ki (human A1AR): > 1000 nM | Ki (human A2AAR): > 1000 nM | Ki (human A2BAR): > 1000 nM | Ki (human A3AR): > 1000 nM
Compound: CC1=C(C(=O)OC(C)C)C(c2ccco2)N2C(=N1)N(Cc1ccccc1F)c1ccccc12 (stereo not shown) [ISAM-R56B]
